The values below come from patent US20230270825A1, “STAPLED OLEFIN CO-AGONISTS OF THE GLUCAGON AND GLP-1 RECEPTORS” (Merck Sharp & Dohme LLC, priority 2019, published 2023).

In this test the target is T1, human GCGR (Homo sapiens, UniProt P47871).
T1 construct: expressed in transfected cells; assay-ready frozen cells grown with Blasticidin and Hygromycin
In words: cAMP activity assay, cells expressing human GCGR (HitHunter cAMP XS). The format is cell-based. Conditions: for EC50: cAMP production, 1 hour at room temperature, assay buffer with or without 20% human serum (not stated which); for hGCGR/hGLP1R (hTone): ratio of human GCGR EC50 to human GLP1R EC50. As for the experimental part: Activity of the peptides at the Glucagon receptor (GCGR) and GLP-1 receptor (GLP1R) was measured in a cAMP activity assay.
Peptides were dissolved in 100% DMSO and serially diluted to generate 10 point titrations. The peptide solutions were then transferred into 384-well assay plates (150 nL/well).
Assay ready frozen cells expressing human GLP1R or human GCGR were suspended in growth media consisting of DMEM medium (GIBCO), 10% FBS (GIBCO), 1x NEAA(GIBCO), 1x P/S (GIBCO), 10ug/ml Blasticidin (GIBCO) and 200 µg/mL Hygromycin (GIBCO). Cells were then diluted in assay buffer consisting of PBS (GIBCO), 7.5% BSA (Perkin Elmer), 100 µM RO 20-1724 (Sigma), with or without 20% human serum (MP Biomedical). The cell suspensions (15 µL) were then added to the assay plates containing the peptide solutions (30,000 cells/well for human GCGR; 10.000 cells/well for human GLP1R). The cells were incubated for 1 hour at room temperature in the dark. Production of cAMP was determined using HitHunter™ cAMPXS kits (DiscoverX) following manufacturer protocol. The plates were incubated for overnight at room temperature in the dark. Luminescence was measured using an EnVision Multilabel plate reader (Perkin Elmer). Native GLP-1 and Glucagon (Bachem) are used as control peptides. EC50 values were calculated using uses a 4 parameter logistic fit based on the Levenberg-Marquardt algorithm.

Structures are written as SMILES. Numbered stars: 1 amine (or outer) side, 2 acyl side, 3 side chain; on linkers, the order of the positions; unused ones are H or OH. Bridge positions count the residues as written; N and C are the ends. Square brackets hold non-standard residues; d marks the D form. Side chains are listed from the residue outwards. Peptide text beside a SMILES is read from it. * marks the point of attachment. Nle(6-ylidene) = O=C([C@H](CCCC=[*:3])N[*:1])[*:2]; S7 = C[C@@](CCCCCC=[*:3])(N[*:1])C(=O)[*:2]; X1 = C[C@](CCCCC=[*:3])(N[*:1])C(=O)[*:2]; γGlu = O=C(O)[C@H](CCC(=O)[*:2])N[*:1]; Palmitoyl = CCCCCCCCCCCCCCCC(=O)*; S5 = C=CCCC[C@](C)(N)C(=O)O; Aib = CC(C)(N)C(=O)O

T1 sequence (P47871 26-477): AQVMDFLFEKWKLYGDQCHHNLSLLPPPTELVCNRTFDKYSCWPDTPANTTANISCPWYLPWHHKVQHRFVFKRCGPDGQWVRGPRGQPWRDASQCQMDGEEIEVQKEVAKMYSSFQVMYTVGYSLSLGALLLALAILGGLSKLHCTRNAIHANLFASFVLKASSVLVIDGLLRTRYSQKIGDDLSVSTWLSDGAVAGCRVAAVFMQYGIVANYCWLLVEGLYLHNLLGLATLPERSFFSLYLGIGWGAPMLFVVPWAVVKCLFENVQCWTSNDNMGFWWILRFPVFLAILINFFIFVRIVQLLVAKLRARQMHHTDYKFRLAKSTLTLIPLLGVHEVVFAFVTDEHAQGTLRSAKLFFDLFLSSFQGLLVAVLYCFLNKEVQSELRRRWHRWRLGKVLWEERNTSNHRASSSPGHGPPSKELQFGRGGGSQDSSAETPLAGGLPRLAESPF

In turn, `CCCCCCCCCCCCCCCC(=O)N[C@@H](CCC(=O)N[C@@H](CCC(=O)NCCCC[C@H](NC(=O)[C@H](CC(=O)O)NC(=O)[C@H](CO)NC(=O)[C@@H](NC(=O)[C@H](Cc1ccccc1)NC(=O)[C@@H](NC(=O)CNC(=O)[C@H](CCC(N)=O)NC(=O)[C@@H](CO)NC(=O)[C@@H](N)Cc1c[nH]cn1)[C@@H](C)O)[C@@H](C)O)C(=O)N[C@@H](CO)C(=O)N[C@]1(C)CCCCC=CCCCCC[C@@](C)(C(=O)N[C@@H](CCC(N)=O)C(=O)N[C@@H](CC(=O)O)C(=O)N[C@@H](Cc2ccccc2)C(=O)N[C@H](C(=O)N[C@@H](CCC(N)=O)C(=O)N[C@@H](Cc2c[nH]c3ccccc23)C(=O)N[C@@H](CC(C)C)C(=O)N[C@@H](CC(C)C)C(=O)N[C@@H](CC(=O)O)C(=O)N[C@H](C(N)=O)[C@@H](C)O)C(C)C)NC(=O)[C@H](C)NC(=O)[C@H](CCCNC(=N)N)NC(=O)[C@H](CCC(=O)O)NC(=O)[C@H](CC(=O)O)NC(=O)[C@H](CC(C)C)NC(=O)[C@H](Cc2ccc(O)cc2)NC1=O)C(=O)O)C(=O)O` [compound 7] (H-H[dS]QGTFTSDK([γGlu-γGlu-Palmitoyl])S[X1]YLDERA[S7]QDFVQWLLDT-NH2; staple 12-19) returned an EC50 of 5 nM. This counts as single-digit nanomolar. On to `CC(C)C[C@H](NC(=O)[C@H](Cc1ccc(O)cc1)NC(=O)[C@H](CCCCN)NC(=O)[C@H](CO)NC(=O)[C@H](CCCCN)NC(=O)[C@H](CC(=O)O)NC(=O)[C@H](CO)NC(=O)[C@@H](NC(=O)[C@H](Cc1ccccc1)NC(=O)[C@@H](NC(=O)CNC(=O)[C@H](CCC(N)=O)NC(=O)[C@@H](CO)NC(=O)[C@@H](N)Cc1c[nH]cn1)[C@@H](C)O)[C@@H](C)O)C(=O)N[C@@H](CC(=O)O)C(=O)N[C@@H](CCC(=O)O)C(=O)N[C@@H](CCCNC(=N)N)C(=O)N[C@@H](C)C(=O)N[C@@H](C)C(=O)N[C@]1(C)CCCCC=CCCCCC[C@@](C)(C(=O)N[C@@H](CC(=O)O)C(=O)N[C@H](C(N)=O)[C@@H](C)O)NC(=O)[C@H](CC(C)C)NC(=O)[C@H](Cc2c[nH]c3ccccc23)NC(=O)[C@H](CCC(N)=O)NC(=O)[C@H](C(C)C)NC(=O)[C@H](Cc2ccccc2)NC(=O)[C@H](CC(=O)O)NC1=O` [compound 11] (H-H[dS]QGTFTSDKSKYLDERAA[X1]DFVQWL[S7]DT-NH2; staple 20-27), for which the half-maximal effective concentration (EC50) came out at 5 nM and the “hGCGR/hGLP1R (hTone)” value is listed as 1.82. As to `CCCCCCCCCCCCCCCC(=O)N[C@@H](CCC(=O)N[C@@H](CCC(=O)NCCCC[C@H](NC(=O)[C@H](CC(=O)O)NC(=O)[C@H](CO)NC(=O)[C@@H](NC(=O)[C@H](Cc1ccccc1)NC(=O)[C@@H](NC(=O)CNC(=O)[C@H](CCC(N)=O)NC(=O)[C@@H](CO)NC(=O)[C@@H](N)Cc1c[nH]cn1)[C@@H](C)O)[C@@H](C)O)C(=O)N[C@@H](CO)C(=O)N[C@@H](CCCCN)C(=O)N[C@@H](Cc1ccc(O)cc1)C(=O)N[C@@H](CC(C)C)C(=O)N[C@@H](CC(=O)O)C(=O)N[C@@H](CCC(=O)O)C(=O)N[C@]1(C)CCCCC=CCCCCC[C@@](C)(C(=O)N[C@@H](Cc2c[nH]c3ccccc23)C(=O)N[C@@H](CC(C)C)C(=O)N[C@@H](CC(C)C)C(=O)N[C@@H](CC(=O)O)C(=O)N[C@H](C(N)=O)[C@@H](C)O)NC(=O)[C@H](C(C)C)NC(=O)[C@H](Cc2ccccc2)NC(=O)[C@H](CC(=O)O)NC(=O)[C@H](CCC(N)=O)NC(=O)[C@H](C)NC(=O)[C@H](C)NC1=O)C(=O)O)C(=O)O` [compound 8] (H-H[dS]QGTFTSDK([γGlu-γGlu-Palmitoyl])SKYLDE[X1]AAQDFV[S7]WLLDT-NH2; staple 17-24), a half-maximal effect (EC50) was put at 5 nM. Regarding `CCCCCCCCCCCCCCCC(=O)N[C@@H](CCC(=O)N[C@@H](CCC(=O)NCCCC[C@H](NC(=O)[C@H](CC(=O)O)NC(=O)[C@H](CO)NC(=O)[C@@H](NC(=O)[C@H](Cc1ccccc1)NC(=O)[C@@H](NC(=O)CNC(=O)[C@H](CCC(N)=O)NC(=O)C(C)(C)NC(=O)[C@@H](N)Cc1c[nH]cn1)[C@@H](C)O)[C@@H](C)O)C(=O)N[C@@H](CO)C(=O)N[C@@H](CCCCN)C(=O)N[C@@H](Cc1ccc(O)cc1)C(=O)N[C@@H](CC(C)C)C(=O)N[C@@H](CC(=O)O)C(=O)NC(C)(C)C(=O)N[C@@H](CCCNC(=N)N)C(=O)N[C@@H](C)C(=O)N[C@@H](C)C(=O)N[C@@H](CCC(N)=O)C(=O)N[C@]1(C)CCCCC=CCCCCC[C@@](C)(C(=O)N[C@H](C(=O)N[C@@H](CCCCN)C(=O)N[C@@H](CCC(N)=O)C(=O)O)[C@@H](C)O)NC(=O)[C@H](CCSC)NC(=O)[C@H](CC(C)C)NC(=O)[C@H](Cc2c[nH]c3ccccc23)NC(=O)[C@H](CCC(N)=O)NC(=O)[C@H](C(C)C)NC(=O)[C@H](Cc2ccccc2)NC1=O)C(=O)O)C(=O)O` [compound 13] (H-H[Aib]QGTFTSDK([γGlu-γGlu-Palmitoyl])SKYLD[Aib]RAAQ[X1]FVQWLM[S7]TKQ-OH; staple 21-28), it took 5 nM to reach a half-maximal effect (EC50) and the “hGCGR/hGLP1R (hTone)” value was 19.11. For the compound `CCCCCCCCCCCCCCCC(=O)N[C@@H](CCC(=O)N[C@@H](CCC(=O)NCCCC[C@H](NC(=O)[C@H](CC(=O)O)NC(=O)[C@H](CO)NC(=O)[C@@H](NC(=O)[C@H](Cc1ccccc1)NC(=O)[C@@H](NC(=O)CNC(=O)[C@H](CCC(N)=O)NC(=O)[C@@H](CO)NC(=O)[C@@H](N)Cc1c[nH]cn1)[C@@H](C)O)[C@@H](C)O)C(=O)N[C@@H](CO)C(=O)N[C@@H](CCCCN)C(=O)N[C@@H](Cc1ccc(O)cc1)C(=O)N[C@@H](CC(C)C)C(=O)N[C@@H](CC(=O)O)C(=O)N[C@@H](CCC(=O)O)C(=O)N[C@@H](CCCNC(=N)N)C(=O)N[C@@H](C)C(=O)N[C@@H](C)C(=O)N[C@H]1CCCC=CCCC[C@@H](C(=O)N[C@@H](Cc2c[nH]c3ccccc23)C(=O)N[C@@H](CC(C)C)C(=O)N[C@@H](CC(C)C)C(=O)N[C@@H](CC(=O)O)C(=O)N[C@H](C(N)=O)[C@@H](C)O)NC(=O)[C@H](C(C)C)NC(=O)[C@H](Cc2ccccc2)NC(=O)[C@H](CC(=O)O)NC1=O)C(=O)O)C(=O)O` [compound 15] (H-H[dS]QGTFTSDK([γGlu-γGlu-Palmitoyl])SKYLDERAA[Nle(6-ylidene)]DFV[Nle(6-ylidene)]WLLDT-NH2; staple 20-24), the “hGCGR/hGLP1R (hTone)” value was 0.44. As to `CC(C)C[C@H](NC(=O)[C@H](Cc1ccc(O)cc1)NC(=O)[C@H](CCCCN)NC(=O)[C@H](CO)NC(=O)[C@H](CCCCN)NC(=O)[C@H](CC(=O)O)NC(=O)[C@H](CO)NC(=O)[C@@H](NC(=O)[C@H](Cc1ccccc1)NC(=O)[C@@H](NC(=O)CNC(=O)[C@H](CCC(N)=O)NC(=O)[C@@H](CO)NC(=O)[C@@H](N)Cc1c[nH]cn1)[C@@H](C)O)[C@@H](C)O)C(=O)N[C@@H](CC(=O)O)C(=O)N[C@@H](CCC(=O)O)C(=O)N[C@@H](CCCNC(=N)N)C(=O)N[C@@H](C)C(=O)N[C@@H](C)C(=O)N[C@@]1(C)CCCC=CCCC[C@@](C)(C(=O)N[C@@H](Cc2c[nH]c3ccccc23)C(=O)N[C@@H](CC(C)C)C(=O)N[C@@H](CC(C)C)C(=O)N[C@@H](CC(=O)O)C(=O)N[C@H](C(N)=O)[C@@H](C)O)NC(=O)[C@H](C(C)C)NC(=O)[C@H](Cc2ccccc2)NC(=O)[C@H](CC(=O)O)NC1=O` [compound 19] (H-H[dS]QGTFTSDKSKYLDERAA[S5]DFV[S5]WLLDT-NH2; staple 20-24), the “hGCGR/hGLP1R (hTone)” value was 0.77. Take `CCCCCCCCCCCCCCCC(=O)N[C@@H](CCC(=O)N[C@@H](CCC(=O)NCCCC[C@H](NC(=O)[C@H](CC(=O)O)NC(=O)[C@H](CO)NC(=O)[C@@H](NC(=O)[C@H](Cc1ccccc1)NC(=O)[C@@H](NC(=O)CNC(=O)[C@H](CCC(N)=O)NC(=O)[C@@H](CO)NC(=O)[C@@H](N)Cc1c[nH]cn1)[C@@H](C)O)[C@@H](C)O)C(=O)N[C@@H](CO)C(=O)N[C@@H](CCCCN)C(=O)N[C@@H](Cc1ccc(O)cc1)C(=O)N[C@@H](CC(C)C)C(=O)N[C@@H](CC(=O)O)C(=O)N[C@@H](CCC(=O)O)C(=O)N[C@@H](CCCNC(=N)N)C(=O)N[C@@H](C)C(=O)N[C@@H](C)C(=O)N[C@]1(C)CCCCC=CCCCCC[C@@](C)(C(=O)N[C@@H](CC(=O)O)C(=O)N[C@H](C(N)=O)[C@@H](C)O)NC(=O)[C@H](CC(C)C)NC(=O)[C@H](Cc2c[nH]c3ccccc23)NC(=O)[C@H](CCC(N)=O)NC(=O)[C@H](C(C)C)NC(=O)[C@H](Cc2ccccc2)NC(=O)[C@H](CC(=O)O)NC1=O)C(=O)O)C(=O)O` [compound 10] (H-H[dS]QGTFTSDK([γGlu-γGlu-Palmitoyl])SKYLDERAA[X1]DFVQWL[S7]DT-NH2; staple 20-27): the “hGCGR/hGLP1R (hTone)” value is given as 19.02. For the compound `CC(C)C[C@H](NC(=O)[C@H](Cc1ccc(O)cc1)NC(=O)[C@H](CCCCN)NC(=O)[C@H](CO)NC(=O)[C@H](CCCCN)NC(=O)[C@H](CC(=O)O)NC(=O)[C@H](CO)NC(=O)[C@@H](NC(=O)[C@H](Cc1ccccc1)NC(=O)[C@@H](NC(=O)CNC(=O)[C@H](CCC(N)=O)NC(=O)[C@@H](CO)NC(=O)[C@@H](N)Cc1c[nH]cn1)[C@@H](C)O)[C@@H](C)O)C(=O)N[C@@H](CC(=O)O)C(=O)N[C@@H](CCC(=O)O)C(=O)N[C@@H](CCCNC(=N)N)C(=O)N[C@@H](C)C(=O)N[C@@H](C)C(=O)N[C@H]1CCCC=CCCC[C@@H](C(=O)N[C@@H](Cc2c[nH]c3ccccc23)C(=O)N[C@@H](CC(C)C)C(=O)N[C@@H](CC(C)C)C(=O)N[C@@H](CC(=O)O)C(=O)N[C@H](C(N)=O)[C@@H](C)O)NC(=O)[C@H](C(C)C)NC(=O)[C@H](Cc2ccccc2)NC(=O)[C@H](CC(=O)O)NC1=O` [compound 17] (H-H[dS]QGTFTSDKSKYLDERAA[Nle(6-ylidene)]DFV[Nle(6-ylidene)]WLLDT-NH2; staple 20-24), the “hGCGR/hGLP1R (hTone)” value was found to be 1.42.
